Reference: ChEMBL document CHEMBL1201862, “PubChem BioAssay data set” (2004)
Calls of active or inactive are those of the source.

Key:
[1] = system: Vero; test: viability of Vero cells under compound – cytotoxicity control for flavivirus capping enzyme inhibitors (AID 588742); type: functional; settings: Chlorocebus sabaeus
[2] = molecular target: Cytochrome P450 2C9 (Homo sapiens, UniProt P11712)
[3] = blockers of HIV-1 envelope-mediated cell-cell fusion – cherry-pick, dose response (AID 652057); type: functional, cell-based
[4] = blockers of HIV-1 ZM109 envelope-driven cell-cell fusion – HeLa effector, CEM target cells, luciferase, cherry-pick, dose response (AID 652058); type: functional, cell-based;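 further: luciferase signal from HIV-1 Env mediated cell-cell fusion of effector and target cells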
[5] = off-target signal loss in HeLa-CEM21 co-culture – HeLa F-luc CTL cells, cherry-picked, counter-screen for HIV-1 Env fusion inhibitor project, dose response (AID 652040); type: functional, cell-based;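 further: potency for signal decrease marking cytotoxic or nonspecific inhibition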
[6] = HIV-1 AD8 envelope cell-cell fusion blockers – cherry-pick, dose response (AID 652062); type: functional, cell-based;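 further: luciferase signal from cell-cell fusion driven by HIV-1 clade B AD8 Env; potency is for inhibitors of fusion seen as a drop in luminescence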
[7] = molecular target: T1, Rac GTPase-activating protein 1 (Homo sapiens, UniProt Q9H0H5); test: blockers of MgcRacGAP-driven Rac1 GTP hydrolysis – biochemical, ADP Hunter fluorescence, primary and confirmatory, confirmation (AID 624330); type: functional
T1 sequence (Q9H0H5 whole entry): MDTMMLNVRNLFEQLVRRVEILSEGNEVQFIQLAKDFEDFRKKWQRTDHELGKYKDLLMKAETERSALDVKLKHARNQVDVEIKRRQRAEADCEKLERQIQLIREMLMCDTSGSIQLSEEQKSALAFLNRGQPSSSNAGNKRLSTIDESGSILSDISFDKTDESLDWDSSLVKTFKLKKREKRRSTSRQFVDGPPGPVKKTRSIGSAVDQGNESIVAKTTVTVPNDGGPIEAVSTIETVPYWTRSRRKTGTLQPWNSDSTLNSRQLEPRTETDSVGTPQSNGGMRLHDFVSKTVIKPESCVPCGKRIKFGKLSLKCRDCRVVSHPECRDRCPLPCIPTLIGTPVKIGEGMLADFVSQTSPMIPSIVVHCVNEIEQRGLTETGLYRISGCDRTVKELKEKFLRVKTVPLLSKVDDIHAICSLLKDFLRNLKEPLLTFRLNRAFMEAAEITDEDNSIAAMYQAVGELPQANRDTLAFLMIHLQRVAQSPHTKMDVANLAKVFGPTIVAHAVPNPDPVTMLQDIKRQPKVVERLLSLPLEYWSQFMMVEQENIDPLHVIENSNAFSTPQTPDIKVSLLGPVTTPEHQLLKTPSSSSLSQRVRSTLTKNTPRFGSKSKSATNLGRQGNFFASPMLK

[8] = molecular target: T2, DNA repair protein RAD52 homolog (Homo sapiens, UniProt P43351); type: functional, biochemical
T2 sequence (P43351 whole entry): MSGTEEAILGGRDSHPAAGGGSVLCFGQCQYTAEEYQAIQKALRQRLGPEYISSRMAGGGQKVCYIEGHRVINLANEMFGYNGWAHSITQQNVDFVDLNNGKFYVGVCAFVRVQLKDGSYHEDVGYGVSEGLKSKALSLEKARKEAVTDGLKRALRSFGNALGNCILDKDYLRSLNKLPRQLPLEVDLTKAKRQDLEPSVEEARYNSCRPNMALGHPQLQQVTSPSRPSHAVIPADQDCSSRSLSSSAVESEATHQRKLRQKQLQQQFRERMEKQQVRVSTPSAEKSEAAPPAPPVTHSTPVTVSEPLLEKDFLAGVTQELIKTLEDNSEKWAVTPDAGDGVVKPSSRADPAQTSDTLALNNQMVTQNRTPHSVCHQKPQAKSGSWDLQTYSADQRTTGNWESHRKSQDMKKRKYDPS

[9] = activation of miR-122 Renilla sensor silencing – cell-based, Huh7 psiCHECK-miR122, Renilla luciferase, cherry-picked, dose response (AID 651956); type: functional;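 further: huh7 hepatoma cells stably carrying a psiCHECK-2 miR-122 sensor plasmid; renilla luciferase signal reporting endogenous miR-122 activity after 48 h compound exposure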
[10] = molecular target: Paired box protein Pax-8 (Homo sapiens, UniProt Q06710); test: PAX8 transcriptional activity inhibition in RMG-I – RMG-I cells, luciferase, cherry-pick, dose response (AID 687027); type: functional, cell-based;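 further: luciferase reporter driven by Pax8 target thyroperoxidase promoter measured by SteadyGlo luminescence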
[11] = OVCAR-3 cell viability loss – plate reader, dry powder samples, PAX8 inhibitor project, dose response (AID 743044); type: functional, cell-based
[12] = OVCAR8 cell viability loss – plate reader, dry powder samples, PAX8 project, dose response (AID 743197); type: functional, cell-based; settings: OVCAR-8
[13] = molecular target: Mu-type opioid receptor (Homo sapiens, UniProt P35372); type: functional, cell-based;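 further: U2OS cells with beta-arrestin recruitment to OPRM1 by beta-gal complementation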
[14] = molecular target: 5-hydroxytryptamine receptor 2A (Mus musculus, UniProt P35363); type: functional, cell-based;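 further: CHO-K1 cells with tagged receptor and beta-arrestin; agonist potency measured as compound-induced activation of the receptor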
Sequence of 5-hydroxytryptamine receptor 2A (P35363 whole entry): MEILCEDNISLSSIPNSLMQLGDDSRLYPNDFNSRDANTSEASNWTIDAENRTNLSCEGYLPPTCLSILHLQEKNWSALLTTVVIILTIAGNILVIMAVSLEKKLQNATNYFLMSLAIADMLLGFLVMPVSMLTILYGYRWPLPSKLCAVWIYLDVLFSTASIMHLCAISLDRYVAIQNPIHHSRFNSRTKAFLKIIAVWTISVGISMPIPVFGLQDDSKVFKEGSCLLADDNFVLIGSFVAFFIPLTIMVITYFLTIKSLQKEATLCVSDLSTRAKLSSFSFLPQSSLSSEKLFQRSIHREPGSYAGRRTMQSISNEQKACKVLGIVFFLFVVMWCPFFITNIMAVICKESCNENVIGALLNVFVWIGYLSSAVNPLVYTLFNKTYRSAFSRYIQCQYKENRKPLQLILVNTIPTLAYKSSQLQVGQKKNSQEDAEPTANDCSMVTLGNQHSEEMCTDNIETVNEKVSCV

Sequence of Paired box protein Pax-8 (Q06710 whole entry): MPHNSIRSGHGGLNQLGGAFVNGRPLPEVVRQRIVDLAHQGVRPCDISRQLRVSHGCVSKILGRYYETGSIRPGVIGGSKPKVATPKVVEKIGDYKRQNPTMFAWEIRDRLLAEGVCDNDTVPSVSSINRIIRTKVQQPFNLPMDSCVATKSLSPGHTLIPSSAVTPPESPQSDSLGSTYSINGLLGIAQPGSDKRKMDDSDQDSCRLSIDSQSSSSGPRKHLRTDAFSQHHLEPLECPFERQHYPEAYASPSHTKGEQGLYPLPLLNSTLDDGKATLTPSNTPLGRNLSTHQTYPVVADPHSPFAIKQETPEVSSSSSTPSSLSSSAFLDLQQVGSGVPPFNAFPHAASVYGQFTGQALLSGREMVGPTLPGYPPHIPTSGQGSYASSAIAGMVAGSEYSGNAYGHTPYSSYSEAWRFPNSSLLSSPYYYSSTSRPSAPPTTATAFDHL
Sequence of Mu-type opioid receptor (P35372 whole entry): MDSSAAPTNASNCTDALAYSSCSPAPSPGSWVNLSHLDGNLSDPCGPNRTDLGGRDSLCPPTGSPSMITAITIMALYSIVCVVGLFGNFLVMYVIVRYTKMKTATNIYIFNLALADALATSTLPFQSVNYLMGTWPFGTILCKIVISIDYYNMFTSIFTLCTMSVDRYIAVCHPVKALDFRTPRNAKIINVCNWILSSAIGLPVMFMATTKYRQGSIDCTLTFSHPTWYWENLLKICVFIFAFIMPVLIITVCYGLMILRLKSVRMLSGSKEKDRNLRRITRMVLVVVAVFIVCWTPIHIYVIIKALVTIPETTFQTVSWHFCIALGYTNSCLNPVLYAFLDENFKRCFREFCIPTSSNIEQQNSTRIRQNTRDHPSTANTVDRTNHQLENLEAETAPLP
Sequence of Cytochrome P450 2C9 (P11712 whole entry, the tested form may be a part): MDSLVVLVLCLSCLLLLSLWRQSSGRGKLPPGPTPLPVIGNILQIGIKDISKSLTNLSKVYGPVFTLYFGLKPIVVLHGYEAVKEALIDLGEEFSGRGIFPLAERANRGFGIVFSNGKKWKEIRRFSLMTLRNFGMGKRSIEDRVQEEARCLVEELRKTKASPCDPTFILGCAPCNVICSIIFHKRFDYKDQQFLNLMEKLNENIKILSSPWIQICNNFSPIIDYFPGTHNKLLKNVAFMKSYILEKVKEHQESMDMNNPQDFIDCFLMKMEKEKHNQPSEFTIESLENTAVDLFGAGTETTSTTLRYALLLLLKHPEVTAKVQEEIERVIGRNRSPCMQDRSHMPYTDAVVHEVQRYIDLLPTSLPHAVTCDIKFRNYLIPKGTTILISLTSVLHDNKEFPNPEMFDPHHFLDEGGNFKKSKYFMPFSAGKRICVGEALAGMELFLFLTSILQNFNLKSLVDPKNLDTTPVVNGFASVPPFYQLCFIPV

With CCC(C)(C)n1nnnc1C(C(C)C)N(Cc1ccco1)Cc1cc2cc3c(cc2nc1O)OCO3 (stereo not drawn) the CC50 [1] was > 40 µM (active) and the AC50 [2] was “inconclusive”.
For COc1ccccc1C(=O)NC(CCSC)C(=O)N1CCN(C/C=C/c2ccccc2)CC1 (stereo not drawn), the AC50 [3] was 4.51 µM (active), the AC50 [4] was 2.79 µM (active) and the AC50 [5] was 10.7 µM (active). For the same compound, the AC50 [6] was 12.8 µM (active).
With CC1(C)Nc2cccc3cccc(c23)N1 the IC50 [7] was 21.6 µM (active) and the AC50 [8] was 25.6 µM (active).
For CCCC#Cc1ccc2c(c1)O[C@H](CN(C)C(=O)COC)[C@H](C)CN([C@@H](C)CO)S2(=O)=O, the AC50 [9] was 1.19 µM (active).
With C[C@@H]1CN([C@H](C)CO)S(=O)(=O)c2ccc(-c3ccccc3)cc2O[C@@H]1CN(C)C(=O)c1ccc2c(c1)OCO2 the AC50 [9] was 27.2 µM (active).
For COc1cccc(C#Cc2ccc3c(c2)O[C@@H](CN(C)C(=O)c2ccccn2)[C@H](C)CN([C@@H](C)CO)S3(=O)=O)c1, the AC50 [10] was 5.17 µM (active), the AC50 [11] was 41.2 µM (active) and the AC50 [12] was 34.1 µM (active).
With Cc1ccc(S(=O)(=O)Nc2ccc3c(c2)CC(=O)N([C@H](C)CO)C[C@H](C)[C@H](CN(C)S(=O)(=O)c2ccccc2)O3)cc1 the AC50 [3] was 0.877 µM (active), the AC50 [4] was 2.46 µM (active) and the AC50 [6] was 3.38 µM (active).
In the case of C[C@H]1CCCCO[C@H](CN(C)Cc2ccc(C(F)(F)F)cc2)[C@@H](C)CN([C@@H](C)CO)C(=O)c2cc(NS(=O)(=O)c3cccs3)ccc2O1, the AC50 [10] is reported as 5.95 µM (active), the AC50 [11] is reported as 37.6 µM (active) and the AC50 [12] is reported as > 70 µM (inactive).
For CCCN(CCC)C1CCc2cccc(O)c2C1 (stereo not drawn), the EC50 [13] was 92.5 µM (inactive) and the EC50 [14] was 2.3 µM (active).
With CC(C(=O)O)c1ccc(C(=O)c2cccs2)cc1 (stereo not drawn) [SUPROFEN] the EC50 [13] was 92.6 µM (inactive) and the EC50 [14] was 5.34 µM (active).
